Here are results for eight molecules from ChEMBL document CHEMBL3603835, “Discovery of dihydroisoquinolinone derivatives as novel inhibitors of the p53-MDM2 interaction with a distinct binding mode” (Bioorg Med Chem Lett, 2015).

Test [1] relates to SJSA-1. The test is described as follows: Antiproliferative activity against p53 positive human SJSA1 cells.
A short description of test [2]: Antiproliferative activity against p53 deficient human Saos2 cells. The settings on record: SAOS-2.
The target in test [3] is Tumour suppressor p53/oncoprotein Mdm2 (Homo sapiens, UniProt Q00987). The test is described as follows: Inhibition of p53-MDM2 interaction (unknown origin) by TR-FRET assay. The format is protein assay.
Chain of Tumour suppressor p53/oncoprotein Mdm2 (P04637 whole entry): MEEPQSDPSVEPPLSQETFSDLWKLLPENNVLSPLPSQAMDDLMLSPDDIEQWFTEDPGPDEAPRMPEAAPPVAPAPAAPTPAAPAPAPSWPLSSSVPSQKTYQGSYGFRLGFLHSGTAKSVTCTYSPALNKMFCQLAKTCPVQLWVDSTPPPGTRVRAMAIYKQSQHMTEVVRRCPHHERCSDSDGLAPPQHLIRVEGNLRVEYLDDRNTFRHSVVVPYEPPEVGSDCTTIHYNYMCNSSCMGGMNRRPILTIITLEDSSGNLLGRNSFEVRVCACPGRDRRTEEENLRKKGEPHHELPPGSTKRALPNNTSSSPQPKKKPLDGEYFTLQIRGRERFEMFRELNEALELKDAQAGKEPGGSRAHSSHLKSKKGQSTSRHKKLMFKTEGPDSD
Chain of Tumour suppressor p53/oncoprotein Mdm2 (Q00987 whole entry): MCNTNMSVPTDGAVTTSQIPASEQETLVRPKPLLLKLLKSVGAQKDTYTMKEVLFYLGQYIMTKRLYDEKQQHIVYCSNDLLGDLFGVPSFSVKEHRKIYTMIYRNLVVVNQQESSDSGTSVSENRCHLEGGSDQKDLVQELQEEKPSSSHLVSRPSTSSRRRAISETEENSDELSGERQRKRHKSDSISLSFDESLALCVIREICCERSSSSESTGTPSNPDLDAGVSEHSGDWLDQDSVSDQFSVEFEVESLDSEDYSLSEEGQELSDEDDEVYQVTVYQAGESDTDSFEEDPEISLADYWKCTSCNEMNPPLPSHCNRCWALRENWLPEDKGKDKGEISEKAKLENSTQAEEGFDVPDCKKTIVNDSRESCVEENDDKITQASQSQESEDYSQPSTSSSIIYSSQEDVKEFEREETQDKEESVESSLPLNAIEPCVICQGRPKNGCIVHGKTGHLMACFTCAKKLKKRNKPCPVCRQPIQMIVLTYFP

The term IC50 denotes the concentration that gives 50% inhibition. As to `CC[C@@H](C)Oc1cc2c(cc1OC)CC(=O)N(c1ccc(N(C)Cc3ccncc3)cc1)[C@H]2c1ccc(Cl)cc1`, the values for the IC50 in test [1] and in test [2] were 1200 nM and 12000 nM, respectively.

Take `CC[C@@H](C)Oc1cc2c(cc1OC)CC(=O)N(c1ccc(N(C)Cc3ccncc3)cc1)[C@@H]2c1ccc(Cl)cc1`: the IC50 is 29600 nM in test [1] and above 30000 nM in test [2].

In turn, `CC[C@@H](C)Oc1cc2c(cc1OC)CC(=O)N(c1ccc(N(C)Cc3cccc(F)c3)cc1)C2c1ccc(Cl)cc1` (some centres not stated) gave an IC50 in test [3] of 170 nM.

Molecule `CC[C@@H](C)Oc1cc2c(cc1OC)CC(=O)N(c1ccc(N(C)Cc3ccc(F)cc3)cc1)C2c1ccc(Cl)cc1` (some centres not stated) yielded an IC50 in test [3] of 120 nM. This IC50 and that of the molecule before are within 1.5-fold of each other.

`CC[C@@H](C)Oc1cc2c(cc1OC)CC(=O)N(c1ccc(N(C)Cc3cccnc3)cc1)C2c1ccc(Cl)cc1` (some centres not stated) returned an IC50 in test [3] of 15 nM.

Take `CCOc1cc2c(cc1OCC)C(c1ccc(Cl)cc1)N(c1cccc(Cl)c1)C(=O)C2` (racemic): in test [3], the IC50 is 1400 nM.

Regarding `CCOc1cc2c(cc1OCC)C(c1ccc(Cl)cc1)N(c1ccc(OC)cc1)C(=O)C2` (racemic), the figures for the IC50 in test [3], in test [1] and in test [2] were 540 nM, 16600 nM and 19600 nM, respectively.

In test [3], `CCOc1cc2c(cc1OCC)C(c1ccc(Cl)cc1)N(c1ccc(Cl)cc1)C(=O)C2` (racemic) displayed an IC50 of 1000 nM. This counts as single-digit micromolar.
